Reference: ChEMBL document CHEMBL4507261, “Data for DCP probe A-192621” (2021)

What was measured:
Conditions in all cases: Compound concentration 10.0 uM
[1] = molecular target: T1, Alpha-1B adrenergic receptor (Homo sapiens) (UniProt P35368)
T1 sequence (whole entry): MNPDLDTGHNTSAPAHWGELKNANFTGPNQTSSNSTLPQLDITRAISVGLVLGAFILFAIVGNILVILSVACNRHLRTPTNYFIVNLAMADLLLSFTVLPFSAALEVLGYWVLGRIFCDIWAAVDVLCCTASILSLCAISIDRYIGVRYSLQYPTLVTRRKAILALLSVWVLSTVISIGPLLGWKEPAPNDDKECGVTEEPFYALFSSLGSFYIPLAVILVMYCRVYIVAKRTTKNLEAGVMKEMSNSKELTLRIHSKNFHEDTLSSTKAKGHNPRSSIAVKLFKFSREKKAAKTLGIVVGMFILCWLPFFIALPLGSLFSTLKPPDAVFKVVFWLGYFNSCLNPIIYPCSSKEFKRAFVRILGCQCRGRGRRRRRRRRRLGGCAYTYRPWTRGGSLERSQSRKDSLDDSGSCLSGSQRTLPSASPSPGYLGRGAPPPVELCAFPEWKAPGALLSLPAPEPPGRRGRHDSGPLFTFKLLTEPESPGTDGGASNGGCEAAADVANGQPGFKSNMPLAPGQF

[2] = molecular target: T2, Muscarinic acetylcholine receptor M4 (Homo sapiens) (UniProt P08173)
T2 sequence (whole entry): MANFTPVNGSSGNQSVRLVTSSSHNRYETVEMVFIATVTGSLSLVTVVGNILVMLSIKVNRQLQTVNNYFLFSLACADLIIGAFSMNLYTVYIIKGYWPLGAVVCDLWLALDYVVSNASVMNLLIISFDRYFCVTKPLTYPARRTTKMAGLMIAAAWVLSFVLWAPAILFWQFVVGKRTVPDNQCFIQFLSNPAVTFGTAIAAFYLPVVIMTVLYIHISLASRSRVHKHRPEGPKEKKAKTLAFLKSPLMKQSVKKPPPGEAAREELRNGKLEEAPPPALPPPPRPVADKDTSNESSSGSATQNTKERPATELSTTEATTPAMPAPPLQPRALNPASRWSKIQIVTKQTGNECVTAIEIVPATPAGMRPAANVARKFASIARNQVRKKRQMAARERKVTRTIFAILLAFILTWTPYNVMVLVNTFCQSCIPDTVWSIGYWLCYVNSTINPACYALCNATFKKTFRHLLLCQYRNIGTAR

[3] = molecular target: D(4) dopamine receptor (Homo sapiens) (UniProt P21917)
Sequence of D(4) dopamine receptor (Homo sapiens) (P21917 whole entry): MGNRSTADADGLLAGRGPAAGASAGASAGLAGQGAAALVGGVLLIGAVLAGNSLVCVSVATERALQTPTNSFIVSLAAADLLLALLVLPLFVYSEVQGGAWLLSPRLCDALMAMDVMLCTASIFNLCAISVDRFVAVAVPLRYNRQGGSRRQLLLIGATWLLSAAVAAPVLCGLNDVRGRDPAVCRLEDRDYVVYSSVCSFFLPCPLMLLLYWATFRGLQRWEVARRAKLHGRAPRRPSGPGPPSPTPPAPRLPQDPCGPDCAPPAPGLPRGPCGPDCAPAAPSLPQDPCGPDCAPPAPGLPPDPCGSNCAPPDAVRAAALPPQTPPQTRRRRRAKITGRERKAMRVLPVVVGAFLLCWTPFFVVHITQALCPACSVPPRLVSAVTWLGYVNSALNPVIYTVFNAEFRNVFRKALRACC

[4] = molecular target: 5-hydroxytryptamine receptor 2A (Homo sapiens) (UniProt P28223)
Sequence of 5-hydroxytryptamine receptor 2A (Homo sapiens) (P28223 whole entry): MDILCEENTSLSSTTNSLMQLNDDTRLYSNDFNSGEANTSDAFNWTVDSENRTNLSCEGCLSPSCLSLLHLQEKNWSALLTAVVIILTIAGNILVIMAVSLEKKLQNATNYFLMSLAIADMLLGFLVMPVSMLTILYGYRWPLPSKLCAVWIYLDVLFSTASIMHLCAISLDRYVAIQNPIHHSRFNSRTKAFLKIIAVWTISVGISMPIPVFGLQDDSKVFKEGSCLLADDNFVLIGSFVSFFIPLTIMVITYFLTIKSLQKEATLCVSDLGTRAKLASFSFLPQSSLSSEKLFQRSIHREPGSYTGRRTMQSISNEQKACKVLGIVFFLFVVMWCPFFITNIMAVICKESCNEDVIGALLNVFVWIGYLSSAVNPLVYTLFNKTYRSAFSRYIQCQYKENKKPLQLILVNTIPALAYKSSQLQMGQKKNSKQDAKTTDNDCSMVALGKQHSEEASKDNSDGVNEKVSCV

[5] = molecular target: Beta-3 adrenergic receptor (Homo sapiens) (UniProt P13945)
Sequence of Beta-3 adrenergic receptor (Homo sapiens) (P13945 whole entry, looked up): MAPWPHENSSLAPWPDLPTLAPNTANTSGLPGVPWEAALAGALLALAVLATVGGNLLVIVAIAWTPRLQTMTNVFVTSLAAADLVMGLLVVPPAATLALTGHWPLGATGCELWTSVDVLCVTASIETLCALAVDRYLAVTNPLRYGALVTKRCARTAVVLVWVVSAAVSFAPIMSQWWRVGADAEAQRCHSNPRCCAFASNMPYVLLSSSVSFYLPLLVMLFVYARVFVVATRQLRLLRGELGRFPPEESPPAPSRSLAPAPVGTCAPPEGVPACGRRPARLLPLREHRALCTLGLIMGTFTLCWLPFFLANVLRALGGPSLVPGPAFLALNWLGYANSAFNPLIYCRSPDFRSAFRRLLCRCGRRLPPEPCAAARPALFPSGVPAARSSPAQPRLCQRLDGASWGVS

Measured: inhibition

CCCOc1ccc([C@H]2[C@H](C(=O)O)[C@@H](c3ccc4c(c3)OCO4)CN2CC(=O)Nc2c(CC)cccc2CC)cc1 [A-192621]
inactive: [1] -2.22% | [2] 12.5% | [3] -3.59% | [4] 4.84% | [5] 13.3%
